Measurements as given in ChEMBL document CHEMBL1212897 (J Med Chem, 2010).
Activity calls are given as the source filed them. No cut-off for these calls is given here.

Legend:
[1] = Clearance in Sprague-Dawley rat at 1 mg/kg, iv; type: ADME, organism-based; design: dose 1 mg/kg, route intravenous; details: in vivo
[2] = Volume of distribution at steady state in Sprague-Dawley rat at 2 mg/kg, iv; type: ADME, organism-based; design: dose 2 mg/kg, route intravenous; details: in vivo, read-out: Vdss
[3] = Half life in Sprague-Dawley rat at 1 mg/kg, iv; type: ADME, organism-based; design: dose 1 mg/kg, route intravenous; details: in vivo
[4] = Volume of distribution at steady state in Sprague-Dawley rat at 1 mg/kg, iv; type: ADME, organism-based; design: dose 1 mg/kg, route intravenous; details: in vivo, read-out: Vdss
[5] = Clearance in Sprague-Dawley rat at 2 mg/kg, iv; type: ADME, organism-based; design: dose 2 mg/kg, route intravenous; details: in vivo
[6] = Half life in Sprague-Dawley rat at 2 mg/kg, iv; type: ADME, organism-based; design: dose 2 mg/kg, route intravenous; details: in vivo
Estrogen receptor = biological target: T1, Estrogen receptor (Homo sapiens, UniProt P03372); test: Antagonist activity at estrogen receptor; type: functional
T1 sequence (P03372 whole entry): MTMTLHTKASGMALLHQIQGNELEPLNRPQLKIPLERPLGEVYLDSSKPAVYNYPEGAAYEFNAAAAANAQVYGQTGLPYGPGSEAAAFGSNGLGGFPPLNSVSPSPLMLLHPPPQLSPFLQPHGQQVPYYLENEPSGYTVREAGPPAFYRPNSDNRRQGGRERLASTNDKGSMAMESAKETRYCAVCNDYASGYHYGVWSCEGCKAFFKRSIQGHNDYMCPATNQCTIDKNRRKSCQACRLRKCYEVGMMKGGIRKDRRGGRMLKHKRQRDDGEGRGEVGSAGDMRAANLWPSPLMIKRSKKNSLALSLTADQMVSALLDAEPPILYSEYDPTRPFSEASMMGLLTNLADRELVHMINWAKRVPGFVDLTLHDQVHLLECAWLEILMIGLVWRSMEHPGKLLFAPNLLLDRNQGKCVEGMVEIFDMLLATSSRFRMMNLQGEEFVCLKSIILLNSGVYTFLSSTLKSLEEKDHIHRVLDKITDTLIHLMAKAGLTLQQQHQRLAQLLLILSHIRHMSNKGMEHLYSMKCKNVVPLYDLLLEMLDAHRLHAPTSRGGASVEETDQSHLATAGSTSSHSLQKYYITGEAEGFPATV

[7] = Oral bioavailability in Sprague-Dawley rat at 2 mg/kg; type: ADME, organism-based; details: in vivo
[8] = Oral bioavailability in Sprague-Dawley rat at 1 mg/kg; type: ADME, organism-based; details: in vivo
[9] = biological target: T2, Mineralocorticoid receptor (Homo sapiens, UniProt P08235); type: functional, cell-based, Huh-7;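 note: antagonism at Gal4-fused mineralocorticoid receptor in human Huh7 cells, measured by luciferase reporter gene read-out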
T2 sequence (P08235 whole entry): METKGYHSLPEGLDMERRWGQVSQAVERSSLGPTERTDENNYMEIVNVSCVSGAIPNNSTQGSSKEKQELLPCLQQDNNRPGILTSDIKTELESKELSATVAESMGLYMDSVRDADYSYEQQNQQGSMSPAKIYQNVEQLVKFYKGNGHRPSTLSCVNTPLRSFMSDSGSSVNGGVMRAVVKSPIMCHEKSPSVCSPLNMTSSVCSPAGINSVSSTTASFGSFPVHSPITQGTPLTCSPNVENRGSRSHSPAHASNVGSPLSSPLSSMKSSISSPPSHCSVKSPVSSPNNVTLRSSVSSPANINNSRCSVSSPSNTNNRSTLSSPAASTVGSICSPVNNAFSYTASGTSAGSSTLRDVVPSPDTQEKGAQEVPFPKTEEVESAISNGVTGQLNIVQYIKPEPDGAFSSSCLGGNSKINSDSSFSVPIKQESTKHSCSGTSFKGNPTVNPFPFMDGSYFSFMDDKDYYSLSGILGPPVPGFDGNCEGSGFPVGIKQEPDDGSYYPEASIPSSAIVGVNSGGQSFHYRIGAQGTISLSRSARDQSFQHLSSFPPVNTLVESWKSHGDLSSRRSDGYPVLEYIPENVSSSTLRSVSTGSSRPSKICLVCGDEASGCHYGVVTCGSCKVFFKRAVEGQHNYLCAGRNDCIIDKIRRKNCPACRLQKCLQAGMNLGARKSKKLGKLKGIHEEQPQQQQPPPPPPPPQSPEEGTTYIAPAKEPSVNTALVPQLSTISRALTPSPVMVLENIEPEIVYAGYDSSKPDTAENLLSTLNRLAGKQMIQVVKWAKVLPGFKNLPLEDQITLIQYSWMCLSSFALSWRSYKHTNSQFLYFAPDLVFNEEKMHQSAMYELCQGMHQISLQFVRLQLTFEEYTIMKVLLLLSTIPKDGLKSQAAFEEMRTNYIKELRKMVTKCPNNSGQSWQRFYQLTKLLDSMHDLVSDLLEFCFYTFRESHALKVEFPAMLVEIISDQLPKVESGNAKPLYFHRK

Progesterone receptor = biological target: T3, Progesterone receptor (Homo sapiens, UniProt P06401); test: Antagonist activity at progesterone receptor; type: functional
T3 sequence (P06401 whole entry): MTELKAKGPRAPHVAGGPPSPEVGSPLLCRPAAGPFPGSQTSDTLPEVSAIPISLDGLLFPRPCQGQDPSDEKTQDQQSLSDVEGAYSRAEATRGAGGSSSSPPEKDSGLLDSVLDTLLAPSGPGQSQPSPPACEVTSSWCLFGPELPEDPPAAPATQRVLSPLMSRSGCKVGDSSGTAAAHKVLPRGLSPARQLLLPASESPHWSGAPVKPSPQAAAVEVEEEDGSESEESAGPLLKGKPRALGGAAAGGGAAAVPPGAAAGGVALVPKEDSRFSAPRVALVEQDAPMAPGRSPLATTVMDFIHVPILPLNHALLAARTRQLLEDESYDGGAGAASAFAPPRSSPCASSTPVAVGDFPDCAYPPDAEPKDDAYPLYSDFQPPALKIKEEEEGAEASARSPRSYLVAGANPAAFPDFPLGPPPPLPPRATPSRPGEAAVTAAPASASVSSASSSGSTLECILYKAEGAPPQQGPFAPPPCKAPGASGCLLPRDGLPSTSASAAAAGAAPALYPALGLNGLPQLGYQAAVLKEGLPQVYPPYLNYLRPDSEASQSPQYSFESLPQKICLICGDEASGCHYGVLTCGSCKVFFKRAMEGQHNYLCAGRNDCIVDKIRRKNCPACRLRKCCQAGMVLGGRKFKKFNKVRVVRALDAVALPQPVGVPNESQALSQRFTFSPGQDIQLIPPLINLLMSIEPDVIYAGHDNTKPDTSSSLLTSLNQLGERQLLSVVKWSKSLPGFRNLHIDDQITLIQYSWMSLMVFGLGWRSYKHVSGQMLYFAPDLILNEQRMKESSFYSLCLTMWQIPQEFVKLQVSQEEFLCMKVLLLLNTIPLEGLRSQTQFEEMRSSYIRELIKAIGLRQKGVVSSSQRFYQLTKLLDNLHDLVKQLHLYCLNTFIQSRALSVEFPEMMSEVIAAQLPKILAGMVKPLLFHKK

Androgen receptor = biological target: T4, Androgen receptor (Homo sapiens, UniProt P10275)
T4 sequence (P10275 whole entry): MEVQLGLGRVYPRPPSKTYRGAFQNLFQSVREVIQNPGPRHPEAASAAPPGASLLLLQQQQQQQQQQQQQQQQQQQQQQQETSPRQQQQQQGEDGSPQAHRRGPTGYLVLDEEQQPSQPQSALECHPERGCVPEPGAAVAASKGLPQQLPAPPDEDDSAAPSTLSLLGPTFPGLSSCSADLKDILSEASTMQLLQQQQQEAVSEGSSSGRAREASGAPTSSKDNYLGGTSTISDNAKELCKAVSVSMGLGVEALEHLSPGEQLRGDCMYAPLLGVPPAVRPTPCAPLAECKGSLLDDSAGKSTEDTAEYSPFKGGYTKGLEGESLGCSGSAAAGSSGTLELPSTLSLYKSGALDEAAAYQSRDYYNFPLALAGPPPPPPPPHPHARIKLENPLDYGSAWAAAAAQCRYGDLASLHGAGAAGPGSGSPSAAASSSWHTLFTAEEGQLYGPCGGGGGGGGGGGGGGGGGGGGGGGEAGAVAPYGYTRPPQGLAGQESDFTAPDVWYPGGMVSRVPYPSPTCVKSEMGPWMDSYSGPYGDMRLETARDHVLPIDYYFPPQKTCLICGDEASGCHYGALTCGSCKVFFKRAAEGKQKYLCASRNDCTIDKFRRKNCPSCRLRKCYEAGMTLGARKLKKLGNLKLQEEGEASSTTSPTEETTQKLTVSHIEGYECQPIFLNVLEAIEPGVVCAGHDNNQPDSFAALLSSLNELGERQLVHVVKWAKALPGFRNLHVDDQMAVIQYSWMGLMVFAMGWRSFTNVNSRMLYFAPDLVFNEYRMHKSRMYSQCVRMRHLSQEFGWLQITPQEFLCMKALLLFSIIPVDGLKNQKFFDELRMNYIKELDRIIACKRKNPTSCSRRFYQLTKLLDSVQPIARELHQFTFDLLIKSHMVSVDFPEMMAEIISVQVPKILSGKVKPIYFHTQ

Glucocorticoid receptor = biological target: T5, Glucocorticoid receptor (Homo sapiens, UniProt P04150)
T5 sequence (P04150 whole entry): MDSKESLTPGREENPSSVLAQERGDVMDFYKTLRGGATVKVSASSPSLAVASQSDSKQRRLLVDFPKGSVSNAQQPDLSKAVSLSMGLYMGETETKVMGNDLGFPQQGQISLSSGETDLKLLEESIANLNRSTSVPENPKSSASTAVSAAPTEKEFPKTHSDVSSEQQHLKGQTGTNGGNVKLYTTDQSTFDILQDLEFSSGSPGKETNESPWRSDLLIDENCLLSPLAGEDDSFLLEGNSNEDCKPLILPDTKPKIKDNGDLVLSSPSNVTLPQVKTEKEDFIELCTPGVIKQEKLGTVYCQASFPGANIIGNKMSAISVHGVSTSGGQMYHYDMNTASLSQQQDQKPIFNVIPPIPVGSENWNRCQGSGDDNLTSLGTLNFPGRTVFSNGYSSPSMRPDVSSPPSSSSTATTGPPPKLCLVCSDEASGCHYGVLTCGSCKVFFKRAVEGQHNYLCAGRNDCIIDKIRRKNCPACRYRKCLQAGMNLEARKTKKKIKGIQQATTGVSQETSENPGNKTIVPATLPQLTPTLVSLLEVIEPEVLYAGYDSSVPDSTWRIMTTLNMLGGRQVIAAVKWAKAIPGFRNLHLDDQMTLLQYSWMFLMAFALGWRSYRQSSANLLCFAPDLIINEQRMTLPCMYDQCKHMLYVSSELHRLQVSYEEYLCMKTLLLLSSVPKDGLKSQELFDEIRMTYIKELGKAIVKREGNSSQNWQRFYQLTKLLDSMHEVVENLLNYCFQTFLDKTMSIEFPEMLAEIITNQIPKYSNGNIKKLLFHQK

Rattus norvegicus [10] = test: Protection against high salt-induced kidney injury in Dahl salt sensitive hypertensive rat assessed as decrease in glomerulosclerosis at 10 mg/kg, po relative to eplerenone; type: functional, organism-based; design: dose 10 mg/kg
Rattus norvegicus [11] = test: Effect on renal function in rat assessed as reduction in serum potassium level at 10 mg/kg, po; type: functional, organism-based; design: dose 10 mg/kg
Rattus norvegicus [12] = test: Protection against high salt-induced kidney injury in Dahl salt sensitive hypertensive rat assessed as decrease in urinary albumin level at 40 to 100 mg/kg, po relative to eplerenone; type: functional; design: scale not given: the % may be the effect or the level left; details: dose mg/kg 40-100
Rattus norvegicus [13] = test: Antihypertensive activity in Dahl salt sensitive hypertensive rat assessed as reduction in systolic blood pressure at 40 to 100 mg/kg, po bid for 21 days (RVb = 10 to 50 mmHg); type: functional, Artery; details: dose mg/kg 40-100
Rattus norvegicus [14] = test: Protection against high salt-induced kidney injury in Dahl salt sensitive hypertensive rat assessed as decrease in urinary albumin level at 10 mg/kg, po relative to eplerenone; type: functional; design: scale not given: the % may be the effect or the level left

SMILES	clearance [1] [mL/min/kg]	Vd [2] [L/kg]	half-life [3] [h]	Vd [4] [L/kg]	clearance [5] [mL/min/kg]	half-life [6] [h]	IC50 (Estrogen receptor) [nM]	bioavailability [7] [%]	bioavailability [8] [%]	IC50 [9] [nM]	IC50 (Progesterone receptor) [nM]	IC50 (Androgen receptor) [nM]	IC50 (Glucocorticoid receptor) [nM]	Activity (Rattus norvegicus [10])	Activity (Rattus norvegicus [11])	Activity (Rattus norvegicus [12]) [%]	Activity (Rattus norvegicus [13]) [mmHg]	Activity (Rattus norvegicus [14]) [%]
CCOc1cc(C2=NN(c3ccc(C#N)c(Cl)c3)[C@@H](C3CCCC3)C2)ccc1C(=O)O	9.2	0.6	2.5	2.3	5.5	1.3	> 4960	83	50									
N#Cc1ccc(N2N=C3c4ccc(C(=O)O)cc4CC[C@@H]3[C@@H]2C2CCCC2)cc1 (racemic)										89	3180	> 10000	> 10000					
N#Cc1ccc(N2N=C(c3ccc(C(=O)O)cc3)C[C@@H]2C2CCCC2)cc1Cl		3.6			34	1.2		100		16	> 4310	> 10000	> 10000					
Cc1cc(N2N=C3c4ccc(C(=O)O)cc4CO[C@@H]3[C@@H]2C2CCCC2)ccc1C#N		0.6			4.6	1.6		57		26	1880	> 10000	> 10000					
N#Cc1ccc(N2N=C(c3ccc(C(=O)O)cc3)C[C@@H]2c2ccc(F)cc2)cc1Cl		1.5			6.9	2.6		46		31	2080	> 8920	> 10000					
N#Cc1ccc(N2N=C3c4ccc(C(=O)O)cc4CC[C@@H]3[C@@H]2C2CCCC2)cc1Cl [PF-03882845]		1.4			9.8	1.7		86						Active	Active	50	<5	18
